Consider 1 substance from patent publication US12678503B2, “Water-activated mucoadhesive compositions and methods of delivering biologically active substances” (The Brigham and Women's Hospital, Inc., priority 2019, dated 2026).

The nature of series [1]: Dissolution in NaCl solutions. Type of series: physicochemical. The note with it: saturated NaCl solutions (~0.35 g/ml in water). An excerpt: […] This is a characteristic behavior of liquid complex coacervate system (See Wang, Q. & Schlenoff, J. B. The Polyelectrolyte Complex/Coacervate Continuum. Macromolecules 47, 3108-3116 (2014); de Kruif, C. G., Weinbreck, F. & de Vries, R. Complex coacervation of proteins and anionic polysaccharides. Current Opinion in Colloid & Interface Science 9, 340-349 (2004); Veis, A. & Aranyi, C. PHASE SEPARATION IN POLYELECTROLYTE SYSTEMS. I. COMPLEX COACERVATES OF GELATIN. J. Phys. Chem. 64, 1203-1210 (1960)).

Series [2] can be described thus: Degree of polymerization of PAC by titration. The note with it: native sucralfate. The series is classed as physicochemical. How it is done: Experiments were performed to determine the degree of polymerization in AF-LuCI by using the titration-based methods as described in Nail, S. L., White, J. L. & Hem, S. L. Structure of Aluminum Hydroxide Gel I. Initial Precipitate. Journal of Pharmaceutical Sciences 65, 1188-1191 (1976); and Hem, J. D. & Roberson, C. E. Form and stability of aluminum hydroxide complexes in dilute solution. Geol Surv Water-Supply Pap (US); (United States) (1967). The degree of polymerization of PACs in AF-LuCI and sucralfate molecule was determined using titration method based on the reversible protonation of hydroxo linkages in the PAC backbone. Approximately 10 mg of AF-LuCI were treated with 0.1N, 0.2N, 0.3N, 0.4N and 0.5N HCl solutions in different tubes. The samples were vortexed for 5 seconds followed by 1-hour incubation. The supernatant of each sample was then collected and the pH was measured using a pH meter. The same procedures were performed with sucralfate. The pH of the HCl solutions was measured as the control group and the difference between the control and the treated groups was calculated. The difference in pH corresponds to the proton consumption and the amount of hydroxo linkages that were then used to calculate the number of aluminum per molecule.

The nature of series [3]: Integrative barrier property test, glucose permeation in Franz-cell system. How it is done:
To examine the barrier properties of pastes formed from the new hydratable compositions in vitro, a mucin-coated membrane was prepared to mimic the mucus surface of the intestine. Specifically, a cellulose nitrate membrane (pore size: 0.2 μm, Whatman, Germany) was incubated in a 3% w/v porcine stomach mucin (Sigma Aldrich, USA) solution in PBS (pH 7.4) and gently shaken for 2 hours at room temperature. The membrane was washed with distilled deionized water (DDW, pH 5.5) to remove the excess mucin solution. The mucin-coated membranes were used within 1 hour following preparation.
To measure the thickness of the mucin layer, the mucin-coated membrane was lyophilized and imaged using scanning electron microscope (SEM) and the thickness of randomly selected positions was examined (average mucin layer thickness: ~100 μm). To test the nutrient barrier properties, 10 mg of sucralfate or AF-LuCI was added evenly to a mucin-coated membrane and vertically tilted for 1 minute. […]
The permeation tests were performed in triplicate for each material. The glucose concentration was measured using high performance liquid chromatography (HPLC, Agilent, USA) with an analytical C18 column (Zorbax Eclipse XDB-C18, Agilent). […]

The next series has as its system SD rats. The series can be described thus: OGTT with different viscosity, dose and dosing schedule (Example 12). Type of series: in vivo, rat. The note with it: normal SD rats. How it is done: Experiments were then performed to assess if the AF-LuCI coating could lower glucose response. To evaluate the in vivo effect of the barrier coating from AF-LuCI on postprandial glucose response, SD rats were pre-gavaged with the AF-LuCI pastes and standard OGTT was performed. AF-LuCI at different dosage but also different viscosity. It was hypothesized that low viscosity product may lead to barrier formation in larger area and earlier duodenal coating (onset of action). For these studies, rats were fasted overnight and gavaged with AF-LuCI pastes (dose: 450-2,700 mg/kg rat; viscosity: high and low), or saline as a control. One or three hours later, glucose solution (2 g/kg rat) was gavaged and changes in serum glucose levels measured every 30 minutes over the subsequent 120 min (n=4 per arm). Tail vein blood was used to measure glucose levels using glucometer. […] The time gap between AF-LuCI administration and glucose gavage also affects the reduction of blood glucose responses differently depending on the AF-LuCI formulations (FIG. 19C). 3 hr after treatment with 450 mg/kg rat lower viscosity AF-LuCI (i.e. 5 Pa·s), the reduction in glucose response decreased to 7%. In FIG. 19, AF-LuCI fabricated using 0.4N, 0.5N, and 0.6N HCl solution and rehydrated in 0.9 w/v % normal saline is denoted as “Viscosity High”, “Viscosity Mid”, and “Viscosity Low”, respectively.

Series [4] is described as follows: Aluminum release in simulated GI fluids. The series is classed as physicochemical. The note with it: simulated gastric fluid (SGF, pH 1.0).
The nature of series [5]: Film thickness of hydrated paste on mucus-coated cellulose nitrate membrane. The series is classed as physicochemical. How it is done:
Five hundred milligrams of AF-LuCI (excess) was added onto mucus-coated cellulose nitrate membrane (disk shape with 2 cm diameter) and DDW (pH 5.5), SGF (pH 1.0), or SIF (pH 6.5) was added immediately. After AF-LuCI becomes a paste and flow to form a layer (3-5 minutes), supernatant was removed and the paste-coated membrane was quickly frozen in −80° C. freezer to measure the thickness. The thickness of the mucus-coated cellulose nitrate membrane without AF-LuCI was separately measured as a baseline.

Another series has as its system Sprague-Dawley (SD) rats. The experiment in a line: microCT imaging of coating in the GI tract. The note with it: gavaged to SD rats. Type of series: in vivo, rat. How it is done:
Sprague-Dawley (SD) rats were gavaged into the stomach with hydrated AF-LuCI pastes and imaged using micro-computed tomography (microCT). AF-LuCI pastes could be visualized on gastro-intestinal tissues without additional contrast agents owing to the presence of aluminum. For these experiments, rats were fasted overnight and gavaged directly into the stomach with 450 mg/kg rat of AF-LuCI paste hydrated in 0.9 w/v % normal saline solution. After 1 hr and 5 hr, the rats were anesthetized using isoflurane and imaged using microCT. […] FIG. 18A is a coronal plane view of SD rats gavaged with AF-LuCI 1 hr before the imaging. AF-LuCI formed a layer in stomach, duodenum and proximal intestine. FIGS. 18B and 18C are 3-dimentional views of SD rats gavaged with AF-LuCI (FIG. 18B) 1 hr and (FIG. 18C) 5 hr before the microCT imaging. AF-LuCI is attached on stomach, duodenum and proximal intestine at least for 5 hrs after gavage while sucralfate only formed sparsely scattered aggregates on the healthy mucosa

The conditions of series [6]: cited from earlier work.

As to sucralfate, in series [1], the amount dissolved result is “Less than 5 w/w %”. Also, in series [2], the “number of aluminum ions per molecule” value is on record as 56.1±3.0 aluminum per molecule. The glucose penetration blocked in series [3] (SGF, 10 mg on mucin-coated membrane, 120 g/L glucose, 5 minutes) is reported as ~ 60%. The glucose blocked in series [3] (applied on mucus-coated membrane in pH 1.0, then pH 4.0) is 16.5%. Besides, in the series on SD rats, the “area under curve (AUC) in OGTT vs saline treated group” value is “no significant difference”. Also, the release of aluminum in series [4] is listed as 15 w/w % of total aluminum content. In addition, the layer formation result in series [5] (distilled water or SIF) is “did not form any layer”. For the same substance, the thickness of layer in series [5] (only in SGF (pH 1.0)) is listed as ~ 250 μm. Further, the “layer formation in the GI tract (microCT)” value in the series on Sprague-Dawley (SD) rats was “did not form a layer”. In addition, in series [6], the “aluminum content of sucralfate (USP regulation)” value was 15.5-18.5 w/w % of the total weight.
